Results from ChEMBL document CHEMBL1142878, “Synthesis and cytotoxicity evaluation of substituted pyridazino[4,5-b]phenazine-5,12-diones and tri/tetra-azabenzofluorene-5,6-diones” (Eur J Med Chem, 2007).

What was measured:
Assay type in all cases: functional, cell-based
HCT-15 = test: Anticancer activity against human HCT15 cells after 48 hrs by SRB assay; conditions: HCT-15, 48 h
A549 = test: Anticancer activity against human A549 cells after 48 hrs by SRB assay; conditions: A549, 48 h
XF498 = test: Anticancer activity against human XF498 cells after 48 hrs by SRB assay; conditions: XF498, 48 h
SK-OV-3 = test: Anticancer activity against human SKOV3 cells after 48 hrs by SRB assay; conditions: SK-OV-3, 48 h
SK-MEL-2 = test: Anticancer activity against human SK-MEL-2 cells after 48 hrs by SRB assay; conditions: SK-MEL-2, 48 h

SMILES: O=C1c2cnncc2C(=O)c2nc3cc(C(F)(F)F)ccc3nc21
- IC50 (HCT-15): 195 nM
- IC50 (A549): 174 nM
- IC50 (XF498): 116 nM
- IC50 (SK-OV-3): 79 nM
- IC50 (SK-MEL-2): 116 nM

SMILES: O=C1C(=O)c2c(nc3cnccn23)-c2ncccc21
- IC50 (HCT-15): 123 nM
- IC50 (A549): 98 nM
- IC50 (XF498): 92 nM
- IC50 (SK-OV-3): 18 nM
- IC50 (SK-MEL-2): 114 nM

SMILES: Cc1cccc2nc3c(n12)C(=O)C(=O)c1cccnc1-3
- IC50 (HCT-15): 1450 nM
- IC50 (A549): 1280 nM
- IC50 (XF498): 2570 nM
- IC50 (SK-OV-3): 1650 nM
- IC50 (SK-MEL-2): 1360 nM

SMILES: O=C1C(=O)c2c(nc3c(C(=O)O)cccn23)-c2ncccc21
- IC50 (HCT-15): 122 nM
- IC50 (A549): 117 nM
- IC50 (XF498): 95 nM
- IC50 (SK-OV-3): 56 nM
- IC50 (SK-MEL-2): 125 nM

SMILES: COc1cccc2nc3c(nc12)C(=O)c1cnncc1C3=O
- IC50 (HCT-15): 93 nM
- IC50 (A549): 109 nM
- IC50 (XF498): 65 nM
- IC50 (SK-OV-3): 39 nM
- IC50 (SK-MEL-2): 29 nM

SMILES: CCc1cccc2nc3c(nc12)C(=O)c1cnncc1C3=O
- IC50 (HCT-15): 12 nM
- IC50 (A549): 10 nM
- IC50 (XF498): 13 nM
- IC50 (SK-OV-3): 34 nM
- IC50 (SK-MEL-2): 19 nM

SMILES: O=C1C(=O)c2c(nc3ncccn23)-c2ncccc21
- IC50 (HCT-15): 301 nM
- IC50 (A549): 160 nM
- IC50 (XF498): 137 nM
- IC50 (SK-OV-3): 27 nM
- IC50 (SK-MEL-2): 139 nM

SMILES: Cc1cnc2nc3c(n2c1)C(=O)C(=O)c1cccnc1-3
- IC50 (HCT-15): 978 nM
- IC50 (A549): 745 nM
- IC50 (XF498): 382 nM
- IC50 (SK-OV-3): 183 nM
- IC50 (SK-MEL-2): 286 nM

SMILES: O=C1c2cnncc2C(=O)c2nc3cc(OC(F)(F)F)ccc3nc21
- IC50 (HCT-15): 74 nM
- IC50 (XF498): 98 nM
- IC50 (SK-OV-3): 63 nM
- IC50 (SK-MEL-2): 85 nM

SMILES: CN(C)c1ccc2nc3c(nc2c1)C(=O)c1cnncc1C3=O
- IC50 (HCT-15): 24 nM
- IC50 (A549): 51 nM
- IC50 (XF498): 70 nM
- IC50 (SK-OV-3): 31 nM
- IC50 (SK-MEL-2): 88 nM

SMILES: Cc1ccc2nc3c(nc2c1C)C(=O)c1cnncc1C3=O
- IC50 (HCT-15): 10 nM
- IC50 (A549): 13 nM
- IC50 (XF498): 13 nM
- IC50 (SK-OV-3): 19 nM
- IC50 (SK-MEL-2): 12 nM

SMILES: COc1cc(OC)c2nc3c(nc2c1)C(=O)c1cnncc1C3=O
- IC50 (HCT-15): 26 nM
- IC50 (A549): 44 nM
- IC50 (XF498): 33 nM
- IC50 (SK-OV-3): 70 nM
- IC50 (SK-MEL-2): 38 nM

SMILES: O=C1c2cnncc2C(=O)c2nc3cc4c(cc3nc21)OCO4
- IC50 (HCT-15): 116 nM
- IC50 (A549): 138 nM
- IC50 (XF498): 118 nM
- IC50 (SK-OV-3): 41 nM
- IC50 (SK-MEL-2): 151 nM

SMILES: CCOc1cccc2nc3c(nc12)C(=O)c1cnncc1C3=O
- IC50 (HCT-15): 30 nM
- IC50 (A549): 53 nM
- IC50 (XF498): 29 nM
- IC50 (SK-OV-3): 32 nM
- IC50 (SK-MEL-2): 15 nM

SMILES: Cc1cccn2c3c(nc12)-c1ncccc1C(=O)C3=O
- IC50 (HCT-15): 123 nM
- IC50 (A549): 112 nM
- IC50 (XF498): 86 nM
- IC50 (SK-OV-3): 51 nM
- IC50 (SK-MEL-2): 122 nM

SMILES: Cc1cccc2nc3c(nc12)C(=O)c1cnncc1C3=O
- IC50 (HCT-15): 18 nM
- IC50 (A549): 29 nM
- IC50 (XF498): 21 nM
- IC50 (SK-OV-3): 70 nM
- IC50 (SK-MEL-2): 34 nM

SMILES: O=C1C(=O)c2c(nc3ccc(Cl)cn23)-c2ncccc21
- IC50 (HCT-15): 134 nM
- IC50 (A549): 126 nM
- IC50 (XF498): 124 nM
- IC50 (SK-OV-3): 46 nM
- IC50 (SK-MEL-2): 141 nM

SMILES: COc1cccc2c1C(=O)c1c(O)c3c(c(O)c1C2=O)C[C@@](O)(C(=O)CO)C[C@@H]3O[C@H]1C[C@H](N)[C@H](O)[C@H](C)O1 [DOXORUBICIN]
- IC50 (HCT-15): 225 nM
- IC50 (A549): 118 nM
- IC50 (XF498): 112 nM
- IC50 (SK-OV-3): 181 nM
- IC50 (SK-MEL-2): 97 nM
